Patent publication US5164376A, “Method for treating retroviral infections with aryl-(2-pyrryl) keytone compound” (Hoffmann-LaRoche Inc., priority 1990, dated 1992)
Entries after “also recorded” stand apart in the source; their conditions may differ.

Assays:
HIV-1 NIT strain [1] = assay: inhibition of HIV-cytopathic effect in infected CD4+ CEM cells (live-cell count by trypan blue exclusion); type: cell-based; details: MOI=1, 4 days, values only in FIG. II
Procedure: (§1) FIGS. II Illustrates the anti-HIV activity of Compound II when tested according to the protocol set forth in Example 2. The open bars and the hatch bars are live-cell counts of infected and uninfected cells respectively. The filled circles are percentage of cell which were stained with antibody from AIDS patients. The duration of treatment for compound II was 4 days.
(§2) High titer virus stocks (HIV-1 NIT strain) were grown in CD4^+ CR1O cells in RMPI-1640 media (Gibco Laboratories) supplemented with 10% fetal calf serum and 0.1 mg/ml Gentamicin. The collected media were filtered through a 0.8 Micron filter and virus isolates were concentrated 100 fold and stored at -80° C.
(§3) CD4^+ CEM cells, propagated in the same medium, were incubated for 60 minutes at 37° C. with diluted stock virus at MOI=1. Cells were washed three times with phosphate buffered saline and resuspended in the medium at 2 x 10^5 cells/ml. Various quantities of Compound II were added. Four days after infection, numbers of live cells were counted by trypan blue exclusion [Mitsuya, et al. Proc. Natl. Acad. Sci. 83:1911 (1986)]. At the same time, aliquots of cells were fixed with acetone and stained with antibodies from AIDS patients, followed by a second staining with fluorescein-conjugated goat anti-human IgG (Cappel). […]

HIV-1 NIT strain [2] = assay: inhibition of viral antigen production (percentage of cells stained with antibodies from AIDS patients); type: cell-based; details: CEM cells, MOI=1, 4 days; values only in FIG. II
Procedure: as §1, §2, §3

TAT = assay: anti-TAT assay: SeAP reporter gene expression under control of HIV-LTR in COS cells co-transfected with TAT; type: cell-based; details: 1, 10 and 100 μM added 24 h post transfection, assayed 48 h later, three independent assays, values only in FIG. I
Text: FIG. I: Illustrates anti-TAT activity of Compound II. COS cells are co-transfected with TAT and Secreted Alkaline Phosphatase (SeAP) genes. The SeAP gene, under the control of the HIV-LTR (responsive to TAT activation) or the RSV-LTR (unresponsive to TAT action) serves as a monitor or reporter gene. SeAP activity in the HIV-LTR combination but not the RSV-LTR combination serves as a measure of TAT activity. Cells containing the RSV-LTR co-transfected gene combination serve as an indicator of the non-specific toxicity of added test compounds. The black bars represent the percent inhibition of SeAP activity by Compound II when the SeAP gene is under the control of HIV-LTR. The hatched bars represent the effect of […] on SeAP activity when the SeAP gene is regulated by RSV-LTR. […] The figure includes results from three separate assays.
Compound II was tested for anti-TAT activity in an anti-TAT assay described in copending patent application Case Docket No. 8320 filed on the same day as the instant application and hereby incorporated by reference. […] The anti-TAT activity is measured by the percent inhibition of SeAP gene expression under the control of HIV-LTR.

COS cells = assay: parallel cytotoxicity assay: SeAP gene expression under control of RSV-LTR (unresponsive to TAT) in COS cells; type: cell-based; details: values only in FIG. I
Procedure: At 24 hours post transfection 1, 10, and 100 μM of test compound was added to the culture media of COS cells transfected with two plasmids, one containing the reporter gene which codes for Secreted Alkaline Phosphatase (SeAP) under control of HIV-LTR, and other containing the TAT gene also under control of HIV-LTR. The alkaline phosphatase activity of the media was assayed 48 hours after addition of test compound. […] The anti-TAT activity is measured by the percent inhibition of SeAP gene expression under the control of HIV-LTR.

HIV = details: most patients; cited from earlier work

## NCC(=O)Nc1ccc(Cl)cc1C(=O)c1ccc[nH]1 [Compound II, 2-glycinamido-5-chlorophenyl (2-pyrryl) ketone]
HIV-1 NIT strain [1]
  inhibition of HIV-cytopathic effect: inhibition of HIV-cytopathic effect
HIV-1 NIT strain [2]
  inhibition of viral antigen production: inhibition of HIV-cytopathic effect and viral antigen production
TAT
  anti-TAT activity (inhibition of SeAP gene expression under HIV-LTR): exhibits anti-TAT activity; also recorded: specific inhibitor of TAT
COS cells
  nonspecific toxicity (effect on SeAP activity under RSV-LTR): does not exhibit nonspecific autotoxicity

## Nc1ccn([C@H]2CC[C@@H](CO)O2)c(=O)n1 [ddC]
HIV
  virustatic range (dose): 0.005-0.25 mg/kg body weight
